One assay concerns C6/36 Aedes albopictus cell line infected with Wolbachia pipientis (Wolbachia strain wAlbB). Description: In vitro insect cell line assay (anti-Wolbachia screen, SYTO 11 high content imaging). As to conditions: 168 h; C6/36 Aedes albopictus cells infected with Wolbachia pipientis wAlbB, 7 days incubation, SYTO 11 imaging; read-out: In vitro anti-Wolbachia activity. The class given is cell-based. As to the method: A C6/36 Aedes albopictus cell line infected with Wolbachia pipientis (Wolbachia strain wAlbB) derived from Aa23 A. albopictus cell line (O'Neill et al., 1997; Insect Mol Biol; Turner et al., (2006) J. Immunol. 7:1240-1249) was used to screen compounds. Cells were cultured in Leibovitz's L15+L-glutamine supplemented with heat-inactivated Foetal Calf Serum (HI-FCS), non-essential amino acids and tryptose phosphate broth. Culture medium was filter-sterilized through a 0.2 μm filter and stored at 4° C. Compounds were provided as 10 mM stocks in DMSO, diluted to 50 μM working stock to give final concentration of 5 μM on the test plate. Concentrated stocks were frozen at −20° C.
Prior to use in the screening assay, cell cultures were sub-passaged (6 days prior) to provide ˜90% confluent cells on Day 0 of screening assay. On Day 0 (assay set-up), the medium was removed from the stock culture flask and replaced with fresh medium. The cells were detached by scraping and cell density was calculated using an automated cell counter. The cells were then diluted at working density and aliquoted at 90 μl to each well of a Cell Carrier 384 well plate (Perkin Elmer). Cell plates were incubated at 26° C.
Control solution (DMSO-medium) was dispensed at 10 μl per well for “untreated” wells. Test solution (Drug-DMSO) was also dispensed at 10 μl (from working plate) per well for “treated” wells. The plates were incubated at 26° C., inside plastic wallet in incubator, for 7 days.
On Day 7, 25 μl of staining medium/dye (SYTO 11, Life Technologies) was added to each sample well and allowed to stain for 15 minutes in the dark. All the medium was removed from each sample well without disturbing the cells and replaced with 100 μl of fresh medium. Plates were imaged on the Operetta High Content Imaging system (Perkin Elmer) and analyzed using texture analysis through Harmony software (Perkin Elmer). The cell-based screen and analysis are described in detail in Clare et al. (2014) J Biomol Screen.
For `CC1COCCN1c1nc(NCc2cccnc2C(F)(F)F)c2cc(F)cnc2n1` (stereo not drawn) [Example 303, 6-fluoro-2-(3-methylmorpholino)-N-((2-(trifluoromethyl)pyridin-3-yl)methyl)pyrido[2,3-d]pyrimidin-4-amine], the EC50 was in the range of 100 to 1000 nM.

In the case of `CC(C)Nc1nc(NCc2ccc(C(F)(F)F)nc2)c2ncccc2n1` [Example 125, N^2-isopropyl-N^4-((6-(trifluoromethyl)pyridin-3-yl)methyl)pyrido[3,2-d]pyrimidine-2,4-diamine], the EC50 fell in the range of 1000 to 100000 nM.

As for `CC(C)[S+]([O-])c1nc(NCc2cccnc2C(F)(F)F)c2cccnc2n1` (stereo not drawn) [Example 178, 2-(isopropylsulfinyl)-N-((2-(trifluoromethyl)pyridin-3-yl)methyl)pyrido[2,3-d]pyrimidin-4-amine], the EC50 is 1000 to 100000 nM.

With `FC(F)(F)c1ccccc1CNc1nc(N2CC3CC(C2)O3)nc2ncccc12` [Example 300, 2-(6-oxa-3-azabicyelo[3.1.1]heptan-3-yl)-N-(2-(trifluoromethyl)benzyl)pyrido[2,3-d]pyrimidin-4-amine], the EC50 was below 0.01 nM.

In the case of `CC(C)C1COCCN1c1nc(NCc2cccnc2C(F)(F)F)c2cccnc2n1` (stereo not drawn) [Example 269, 2-(3-isopropylmorpholino)-N-((2-(trifluoromethyl)pyridin-3-yl)methyl)pyrido[2,3-d]pyrimidin-4-amine], the EC50 lay in the range of 1 to 10 nM.

For `FC(F)(F)c1ccccc1CNc1nc(CN2CC(C(F)(F)F)C2)nc2ncccc12` [Example 226], the EC50 is 100 to 1000 nM.

With `CC(Nc1ncnc2cc(I)sc12)c1ccccc1C(F)(F)F` (stereo not drawn) [Example 96, 6-iodo-N-(1-(2-(trifluoromethyl)phenyl)ethyl)thieno[3,2-d]pyrimidin-4-amine], the EC50 was in the range of 1000 to 100000 nM.

With `CC1COCCN1c1nc(NCc2ccccc2C(F)(F)F)c2cncnc2n1` (stereo not drawn) [Example 307, 2-(3-methylmorpholino)-N-(2-(trifluoromethyl)benzyl)pyrimido[4,5-d]pyrimidin-4-amine], the EC50 lay in the range of 1000 to 100000 nM.

For the molecule `CC(C)Nc1nc(NCc2ccccc2S(C)(=O)=O)c2ncccc2n1` [Example 122, N^2-isopropyl-N^4-(2-(methylsulfonyl)benzyl)pyrido[3,2-d]pyrimidine-2,4-diamine], the EC50 lay within 1000 to 100000 nM.

For the molecule `CC(C)Nc1nc(NCc2c(F)cccc2Cl)c2sccc2n1` [Example 30, N^4-(2-chloro-6-fluorobenzyl)-N^2-isopropylthieno[3,2-d]pyrimidine-2,4-diamine], the EC50 lay within 100 to 1000 nM.

As for `Clc1nc(NC2(c3ccccc3Cl)CC2)c2sccc2n1` [Example 47, 2-chloro-N-(1-(2-chlorophenyl)cyclopropyl)thieno[3,2-d]pyrimidine-4-diamine], the EC50 lay within 1000 to 100000 nM.

Regarding `FC(F)(F)c1ccccc1CNc1nc(CN2CCC(Cl)CC2)nc2ncccc12` [Example 222], the EC50 lay in the range of 1000 to 100000 nM.

For `CC(C)Nc1nc(NCc2ccc(S(C)(=O)=O)cc2)c2ccccc2n1` [Example 110, N^2-isopropyl-N^4-(4-(methylsulfonyl)benzyl)quinazoline-2,4-diamine], the EC50 is 1000 to 100000 nM.

Consider `FC(F)(F)c1ccccc1CNc1nc(N2CCOC3CC32)nc2ncccc12` (stereo not drawn) [Example 301, 2-(2-oxa-5-azabicyclo[4.1.0]heptan-5-yl)-N-(2-(trifluoromethyl)benzyl)pyrido[2,3-d)pyrimidin-4-amine], for which the EC50 was in the range of 0.01 to 1 nM.

For the molecule `CC1COCCN1c1nc(N2CCC2c2ccccc2C(F)(F)F)c2cccnc2n1` (stereo not drawn) [Example 214, 3-methyl-4-(4-(2-(2-(trifluoromethyl)phenyl)azetidin-1-yl)pyrido[2,3-d]pyrimidin-2-yl)morpholine], the EC50 lay within 0.01 to 1 nM.

As to `CC(Nc1nc(Cl)nc2ccsc12)c1ccccc1C(F)(F)F` (stereo not drawn) [Example 52, 2-chloro-N-(1-(2-(trifluoromethyl)phenyl)ethyl)thieno[3,2-d]pyrimidin-4-amine], the EC50 lay in the range of 10 to 100 nM.

For `FC(F)(F)c1ncccc1CNc1nc(N2CCCCC2C(F)(F)F)nc2ncccc12` (stereo not drawn) [Example 259, 2-(2-(trifluoromethyl)piperidin-1-yl)-N-((2-(trifluoromethyl)pyridin-3-yl)methyl)pyrido[2,3-d]pyrimidin-4-amine], the EC50 lay in the range of 0.01 to 1 nM.

As to `N#CC1CCCN(c2nc(NCc3ccccc3C(F)(F)F)c3cccnc3n2)C1` (stereo not drawn) [Example 262, 1-(4-((2-(trifluoromethyl)benzyl)amino)pyrido[2,3-d]pyrimidin-2-yl)piperidine-3-carbonitrile], the EC50 is 0.01 to 1 nM.

Turning to `FC(F)(F)c1ncccc1CNc1nc(N2CCOC3CC32)nc2ncccc12` (stereo not drawn) [Example 294, 2-(2-oxa-5-azabicyclo[4.1.0]heptan-5-yl)-N-((2-(trifluoromethyl)pyridin-3-yl)methyl)pyrido[2,3-d]pyrimidin-4-amine], the EC50 fell in the range of 0.01 to 1 nM.

In the case of `C[C@H]1COCCN1c1nc(N2CCC2c2ccccc2C(F)(F)F)c2cccnc2n1` (stereo partly drawn) [Example 291, (3S)-3-methyl-4-(4-(2-(2-(trifluoromethyl)phenyl)azetidin-1-yl)pyrido[2,3-d]pyrimidin-2-yl)morpholine], the EC50 was 0.01 to 1 nM.

As to `CC(C)Nc1nc(NCc2ccccc2S(C)(=O)=O)c2sccc2n1` [Example 117, N^2-isopropyl-N^4-(2-(methylsuifonyl)benzyl)thieno[3,2-d]pyrimidine-2,4-diamine], the EC50 lay within 100 to 1000 nM.

`FC(F)(F)c1ncccc1CNc1nc(NC2CNC2)nc2ncccc12` [Example 147, N^2-(azetidin-3-yl)-N^4-((2-(trifluoromethyl)pyridin-3-yl)methyl)pyrido[2,3-d]pyrimidine-2,4-diamine]: the EC50 fell in the range of 1000 to 100000 nM.

Take `FC(F)(F)c1ccccc1CNc1nc(N2CCC(Cl)CC2)nc2ncccc12` [Example 198, 2-(4-chloropiperidin-1-yl)-N-(2-(trifluoromethyl)benzyl)pyrido[2,3-d]pyrimidin-4-amine]: the EC50 lay in the range of 1 to 10 nM.

For the molecule `N#CC1CCN(c2nc(NCc3cccnc3C(F)(F)F)c3cccnc3n2)CC1` [Example 234, 1-(4-(((2-(trifluoromethyl)pyridin-3-yl)methyl)amino)pyrido[2,3-d]pyrimidin-2-yl)piperidine-4-carbonitrile], the EC50 lay in the range of 1 to 10 nM.

As for `Fc1ccccc1CNc1ncnc2ccsc12` [Example 22, N-(2-fluorobenzyl)thieno[3,2-d]pyrimidin-4-amine], the EC50 was in the range of 1000 to 100000 nM.

`CC(C)Nc1nc(NCc2ccccc2C(F)(F)F)c2ccccc2n1` [Example 58, N^2-isopropyl-N^4-(2-(trifluoromethyl)benzyl)quinazoline-2,4-diamine]: the EC50 fell in the range of 100 to 1000 nM.

For `CC1COCCN1Cc1nc(NCc2ccccc2C(F)(F)F)c2cccnc2n1` (stereo not drawn) [Example 224], the EC50 lay in the range of 1000 to 100000 nM.

With `C[C@@H]1COCCN1c1nc(NCc2ccccc2C(F)(F)F)c2cccnc2n1` [Example 209, (R)-2-(3-methylmorpholino)-N-(2-(trifluoromethyl)benzyl)pyrido[2,3-d]pyrimidin-4-amine], the EC50 is 10 to 100 nM.

As to `CC(C)Nc1nc(NCc2ccc(S(C)(=O)=O)cc2)c2sccc2n1` [Example 118, N^2-isopropyl-N^4-(4-(methylsuifonyl)benzyl)thieno[3,2-d]pyrimidine-2,4-diamine], the EC50 lay in the range of 1000 to 100000 nM.

For `CC(C)Nc1nc(NCc2ccccc2)c2sccc2n1` [Example 12, N^4-benzyl-N^2-isopropylthieno[3,2-d]pyrimidine-2,4-diamine], the EC50 is 1000 to 100000 nM.

`CC(C)Nc1nc(NCCc2ccccc2C(F)(F)F)c2sccc2n1` [Example 45, N^2-isopropyl-N^4-(2-(trifluoromethyl)phenethyl)thieno(3,2-d]pyrimidine-2,4-diamine]: the EC50 was in the range of 100 to 1000 nM.

For the molecule `CC(Nc1ncnc2cc(C3CC3)sc12)c1ccccc1C(F)(F)F` (stereo not drawn) [Example 99, 6-cyclopropyl-N-(1-(2-(trifluoromethyl)phenyl)ethyl)thieno[3,2-d]pyrimidin-4-amine], the EC50 was in the range of 1000 to 100000 nM.

Turning to `CC1CCCN(c2nc(NCc3cccnc3C(F)(F)F)c3cccnc3n2)C1` (stereo not drawn) [Example 311, 2-(3-methylpiperidin-1-yl)-N-((2-(trifluoromethyl)pyridin-3-yl)methyl)pyrido[2,3-d]pyrimidin-4-amine], the EC50 was 0.01 to 1 nM.

For `CC(C)Nc1nc(N(C)Cc2cccnc2C(F)(F)F)c2cccnc2n1` [Example 160, N^2-isopropyl-N^4-methyl-N4-((2-(trifluoromethyl)pyridin-3-yl)methyl)pyrido[2,3-d]pyrimidine-2,4-diamine], the EC50 was 10 to 100 nM.

The assay is the same for the next values; noted with them: C6/36 Aedes albopictus cells infected with Wolbachia pipientis wAlbB, 7 days incubation, SYTO 11 imaging; read-out: In vitro anti-Wolbachia activity.
For “2-((3R)-3,5-dimethylmorpholino)-N-(2-(trifluoromethyl)benzyl)pyrido[2,3-d]pyrimidin-4-amine [Example 302]”, the EC50 was below 0.01 nM.

With “2-((3,3-difluoropyrrolidin-1-yl)methyl)-N-((2-(trifluoromethyl)pyridin-3-yl)methyl)pyrido[2,3-d]pyrimidin-4-amine [Example 225]”, the EC50 fell in the range of 1000 to 100000 nM.

Values taken from patent US11518760B2 (Liverpool School of Tropical Medicine, priority 2017, dated 2022).
